According to PubChem BioAssay AID330 (DTP/NCI, 2004):
“And” between values parts separate entries of the source, which are not always exact repeats. Equal values may be shown once. Inconclusive results and toxic doses are left out. The calls were made as follows: active = survival T/C of 150% or more; inactive = T/C below 125% in these data.

System: P388 leukemia ip, CD2F1 mice, survival T/C
Test: NCI In Vivo Anticancer Drug Screen. Data for tumor model P388 Leukemia (intraperitoneal) in CD2F1 (CDF1) mice
Conditions: endpoint: median survival time, higher = longer survival
How it was run: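 Mice carrying the transplanted tumor received test compound or vehicle. Survival was recorded in each group, and the value is the treated-group measurement divided by that of the vehicle-treated control group.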

[1] = dose: 50.0 mg/kg/injection, schedule: Q01DX009 (ip), vehicle: saline
[2] = dose: 100.0 mg/kg/injection, schedule: Q01DX009 (ip), vehicle: saline with Tween-80
[3] = dose: 100.0 mg/kg/injection, schedule: Q01DX009 (ip), vehicle: saline
[4] = dose: 200.0 mg/kg/injection, schedule: Q01DX009 (ip), vehicle: saline with Tween-80
[5] = dose: 200.0 mg/kg/injection, schedule: Q01DX009 (ip), vehicle: saline
[6] = dose: 15.0 mg/kg/injection, schedule: Q01DX005 (ip), vehicle: saline with Tween-80
[7] = dose: 30.0 mg/kg/injection, schedule: Q01DX005 (ip), vehicle: saline with Tween-80
[8] = dose: 25.0 mg/kg/injection, schedule: Q01DX009 (ip), vehicle: saline with Tween-80
[9] = dose: 60.0 mg/kg/injection, schedule: Q01DX005 (ip), vehicle: saline with Tween-80
[10] = dose: 120.0 mg/kg/injection, schedule: Q01DX005 (ip), vehicle: saline with Tween-80

Measured: T/C

CCOC(=O)C1CCCCC1NC1CCCCC1C(=O)OCC (stereo not given)
inactive: dose: 34.5 mg/kg/injection, schedule: Q01DX009 (ip), vehicle: saline with Tween-80 105 % of control | dose: 50.0 mg/kg/injection, schedule: Q01DX009 (ip), vehicle: saline with Tween-80 120 % of control | [1] 103 % of control | [2] 117 % of control | [3] 112 % of control | dose: 138.0 mg/kg/injection, schedule: Q01DX009 (ip), vehicle: saline with Tween-80 107 % of control | [4] 120 % of control | [5] 108 % of control

C#CC(C)(C)NC(=O)NC12CC3CC(CC(C3)C1)C2
inactive: dose: 12.5 mg/kg/injection, schedule: Q01DX001 (ip), vehicle: saline with Tween-80 94 % of control | dose: 25.0 mg/kg/injection, schedule: Q01DX001 (ip), vehicle: saline with Tween-80 86 % of control | dose: 50.0 mg/kg/injection, schedule: Q01DX001 (ip), vehicle: saline with Tween-80 89 % of control

O=C(O)COc1ccc2ccccc2c1
inactive: [2] 90 % of control | dose: 100.0 mg/kg/injection, schedule: Q04DX003 (ip), vehicle: saline with Tween-80 100 % of control | [4] 100 % of control | dose: 200.0 mg/kg/injection, schedule: Q04DX003 (ip), vehicle: saline with Tween-80 110 % of control

Cn1c(Cl)c(/C=C2/N=C(c3ccccc3)OC2=O)c2ccccc21
inactive: dose: 100.0 mg/kg/injection, schedule: Q01DX001 (ip), vehicle: Klucel (hydroxypropylcellulose) (HPC) 94 % of control | dose: 200.0 mg/kg/injection, schedule: Q01DX001 (ip), vehicle: Klucel (hydroxypropylcellulose) (HPC) 94 % of control | dose: 400.0 mg/kg/injection, schedule: Q01DX001 (ip), vehicle: Klucel (hydroxypropylcellulose) (HPC) 94 % of control

C[N+]1(Cc2ccccc2)CCCC(O)C1 (stereo not given)
inactive: dose: 7.5 mg/kg/injection, schedule: Q01DX005 (ip), vehicle: saline with Tween-80 101 % of control | [6] 93 % of control | [7] 99 % of control

CC12CC(C(O)(C(F)(F)F)C(F)(F)F)C(=O)C=C1CCC1C2CCC2(C)C(C(=O)CC(O)(C(F)(F)F)C(F)(F)F)CCC12 (stereo not given)
inactive: dose: 75.0 mg/kg/injection, schedule: Q01DX001 (sc), vehicle: steriod suspending solution 104 % of control | dose: 150.0 mg/kg/injection, schedule: Q01DX001 (sc), vehicle: steriod suspending solution 122 % of control | dose: 300.0 mg/kg/injection, schedule: Q01DX001 (sc), vehicle: steriod suspending solution 100 % of control

CNc1ccccc1C(=O)N1CCc2c([nH]c3ccccc23)C1=O
inactive: [8] 98 % of control | [2] 93 % of control

O=c1oc2ccccc2c(O)c1C(c1ccc2c(c1)OCO2)c1c(O)c2ccccc2oc1=O
inactive: [6] 98 % of control | [7] 96 % of control

Cc1cc(C)c2c(c1)CC(C)(C)C(=O)OC2=O
inactive: [9] 107 % of control | [10] 101 % of control

CC1=CC2C(O)(CC3(CO)OC3C3C4C(C)(C)C4(OC(=O)c4ccccc4)C(OC(=O)c4ccccc4)C(C)C32O)C1=O (stereo not given)
inactive: dose: 50.0 micrograms/kg/injection, schedule: Q01DX005 (ip), vehicle: saline + alcohol 94 % of control | dose: 100.0 micrograms/kg/injection, schedule: Q01DX005 (ip), vehicle: saline + alcohol 97 % of control | dose: 200.0 micrograms/kg/injection, schedule: Q01DX005 (ip), vehicle: saline + alcohol 99 % of control | dose: 400.0 micrograms/kg/injection, schedule: Q01DX005 (ip), vehicle: saline + alcohol 94 % of control | dose: 800.0 micrograms/kg/injection, schedule: Q01DX005 (ip), vehicle: saline + alcohol 105 % of control

COC1C/C(=N\O)C2OC(c3ccccc3)OCC2O1 (stereo not given)
inactive: dose: 1.56 mg/kg/injection, schedule: Q01DX009 (ip), vehicle: other 96 % of control | dose: 3.13 mg/kg/injection, schedule: Q01DX009 (ip), vehicle: other 104 % of control | dose: 6.25 mg/kg/injection, schedule: Q01DX009 (ip), vehicle: other 106 % of control | dose: 12.5 mg/kg/injection, schedule: Q01DX009 (ip), vehicle: other 92 % of control | dose: 25.0 mg/kg/injection, schedule: Q01DX009 (ip), vehicle: other 101 % of control and 94 % of control | dose: 50.0 mg/kg/injection, schedule: Q01DX009 (ip), vehicle: other 99 % of control | dose: 100.0 mg/kg/injection, schedule: Q01DX009 (ip), vehicle: other 100 % of control | dose: 200.0 mg/kg/injection, schedule: Q01DX009 (ip), vehicle: other 98 % of control | dose: 400.0 mg/kg/injection, schedule: Q01DX009 (ip), vehicle: other 100 % of control

CCCCCCCCCCCCCCCC[N+](C)(C)CCOC(C)=O
inactive: dose: 12.5 mg/kg/injection, schedule: Q01DX009 (ip), vehicle: saline with Tween-80 109 % of control | dose: 12.5 mg/kg/injection, schedule: Q01DX009 (ip), vehicle: saline 111 % of control | [8] 109 % of control | dose: 25.0 mg/kg/injection, schedule: Q01DX009 (ip), vehicle: saline 100 % of control

COC(=O)C(/C=[N+](\[O-])C1CCCCC1)=C(\C=[N+](/[O-])C1CCCCC1)C(=O)OC
inactive: [9] 102 % of control | [10] 87 % of control | dose: 240.0 mg/kg/injection, schedule: Q01DX005 (ip), vehicle: saline with Tween-80 91 % of control

CC1=CC(O/C=C2\C(=O)OC3c4ccccc4CC23)OC1=O (stereo not given)
inactive: dose: 50.0 mg/kg/injection, schedule: Q01DX009 (ip), vehicle: suspension in saline 101 % of control | dose: 100.0 mg/kg/injection, schedule: Q01DX009 (ip), vehicle: suspension in saline 108 % of control | dose: 200.0 mg/kg/injection, schedule: Q01DX009 (ip), vehicle: suspension in saline 92 % of control

O=C(O)CSc1nc2ccc(N3C(=O)C4C5C=CC(C5)C4C3=O)cc2s1 (stereo not given)
inactive: dose: 50.0 mg/kg/injection, schedule: Q01DX009 (ip), vehicle: Klucel (hydroxypropylcellulose) (HPC) 90 % of control | dose: 100.0 mg/kg/injection, schedule: Q01DX009 (ip), vehicle: Klucel (hydroxypropylcellulose) (HPC) 105 % of control | dose: 200.0 mg/kg/injection, schedule: Q01DX009 (ip), vehicle: Klucel (hydroxypropylcellulose) (HPC) 99 % of control

CC(=O)c1c(O)cc(-c2ccccc2)oc1=O
inactive: dose: 9.5 mg/kg/injection, schedule: Q01DX005 (ip), vehicle: Klucel (hydroxypropylcellulose) (HPC) 91 % of control | dose: 19.0 mg/kg/injection, schedule: Q01DX005 (ip), vehicle: Klucel (hydroxypropylcellulose) (HPC) 96 % of control | dose: 38.0 mg/kg/injection, schedule: Q01DX005 (ip), vehicle: Klucel (hydroxypropylcellulose) (HPC) 93 % of control | dose: 76.0 mg/kg/injection, schedule: Q01DX005 (ip), vehicle: Klucel (hydroxypropylcellulose) (HPC) 106 % of control

CC1(C)N(O)C(c2cccnc2)=[N+]([O-])C1(C)C
inactive: dose: 50.0 mg/kg/injection, schedule: Q01DX005 (ip), vehicle: Klucel (hydroxypropylcellulose) (HPC) 104 % of control | [1] 97 % of control | dose: 100.0 mg/kg/injection, schedule: Q01DX005 (ip), vehicle: Klucel (hydroxypropylcellulose) (HPC) 101 % of control | [3] 94 % of control | dose: 200.0 mg/kg/injection, schedule: Q01DX005 (ip), vehicle: Klucel (hydroxypropylcellulose) (HPC) 103 % of control | [5] 102 % of control

O=C(O)/C=C/CCCCCCO
inactive: dose: 100.0 mg/kg/injection, schedule: Q04DX002 (ip), vehicle: saline + alcohol 91 % of control | dose: 200.0 mg/kg/injection, schedule: Q04DX002 (ip), vehicle: saline + alcohol 100 % of control | dose: 400.0 mg/kg/injection, schedule: Q04DX002 (ip), vehicle: saline + alcohol 106 % of control
